Measurements: patent publication US4505914A, “Pharmaceutical for the treatment of sleep disorders” (Merckle GmbH, priority 1982, dated 1985)
“And” between values parts separate entries of the source, which are not always exact repeats. Equal values may be shown once.

What was measured:
[1] = system: male NMRJ mice; experiment: Sleeping time prolongation under the influence of cinnarizine and flunarizine (ED50); assay type: in vivo, mouse; details: for ED50: sleeping time increased by 50%; for Effect on the action of barbiturates: in words
Excerpt: (§1) A typical representative from the group of barbiturates with long action (phenobarbital), with short to average action (cyclobarbital-calcium) as well as ultra short action (hexobarbital) as well as a combination of two barbiturates (cyclobarbital-calcium+hexobarbital) was applied orally in graduated doses.
Determination of the sleeping time prolongation under the influence of […]

[2] = system: tail and corneal reflex; experiment: Optimum effect (tail and corneal reflex according to Irvin); assay type: in vivo, mouse; set-up: key to Optimum Reflex: 0: normal reaction; -1: slightly lessened; -2: clearly lessened; -3: highly lessened; -4: complete lack of reaction
Procedure: (§2) As a criterium for the onset of the effect, the beginning of the excitation stage was measured. For the optimum effect, the beginning of the sleep phase was tested every 10 minutes by the tail and corneal reflex (according to Irvin) according to the following designations:
-4 = complete lack of reaction
(§3) Sleeping Time, Onset of Effect and Optium Effect under the influence of […]

[3] = system: male NMR.tau. mice; experiment: Onset of effect (beginning of the excitation stage); assay type: in vivo, mouse
Procedure: as §2, §3

[4] = system: male NMR.tau. mice; experiment: Sleep duration, prolongation of sleeping time and ED50 under the influence of cinnarizine (Table 3); assay type: in vivo, mouse
Excerpt: as §1

[5] = system: male NMRJ mice; experiment: Determination of the oral ED50 of the barbiturates (sleep time); assay type: in vivo, mouse; details: for ED50: Mus musculus, 0.5 h, oral, dose required for a 30-minute sleeping period
Excerpt: as §1
Determination of the oral ED50 of
the barbiturates using 10 male NMR.tau. mice/group

[6] = literature, in words; cited from earlier work
[7] = literature, in words; cited from earlier work; remark: listed apart in the source
[8] = in words; cited from earlier work
[9] = hexobarbital 710 mg/kg alone (C)
[10] = cinnarizine 0.50 + hexobarbital 710 mg/kg
[11] = cinnarizine 0.75 + hexobarbital 710 mg/kg
[12] = cinnarizine 1.0 + cyclobarbital calcium 239 mg/kg
[13] = cinnarizine 1.0 + cyclobarbital calcium + hexobarbital (40 + 30) 225 mg/kg
[14] = cinnarizine 1.00 + hexobarbital 710 mg/kg
[15] = cinnarizine 2.5 + cyclobarbital calcium 239 mg/kg
[16] = cinnarizine 2.5 + cyclobarbital calcium + hexobarbital (40 + 30) 225 mg/kg
[17] = cinnarizine 5.0 + cyclobarbital calcium 239 mg/kg
[18] = cinnarizine 5.0 + cyclobarbital calcium + hexobarbital (40 + 30) 225 mg/kg
[19] = cyclobarbital calcium 239 mg/kg alone (C)

CN1C(=O)NC(=O)C(C)(C2=CCCCC2)C1=O (stereo not shown) [Hexobarbital]
Sleep Time ([1]; hexobarbital 710 mg/kg alone, cinnarizine series): 32.74 min | Sleep Time ([1]; hexobarbital 710 mg/kg alone, flunarizine series): 38.78 min | Optimum % of control [2, 9]: 100.0% | Optimum Min. [2, 9]: 10 to 20 min | Optimum Reflex [2, 9]: -1 | Onset p.a. % of control [3, 9]: 100.0% | Onset x [3, 9]: 2.89 min | Sleep Time [4, 9]: 35.86 min | Sleep Time % of control [4, 9]: 100.0% | Sleep Time ([5]; 250 mg/kg oral): 3.03 min | Sleep Time ([5]; 500 mg/kg oral): 16.52 min | Sleep Time ([5]; 750 mg/kg oral): 32.53 min | Sleep Time ([5]; 1000 mg/kg oral): 56.08 min | ED50 [5]: 710 mg/kg

CCCC(C)(COC(N)=O)COC(N)=O [Meprobamate]
Effect on barbiturates [6]: pontentiating or enhancing effect on barbiturates

OCC(S)CS (stereo not shown) [Dimercaprol (BAL)]
Decomposition of pentobarbital [7]: checks the decomposition of pentobarbital

Fc1ccc(C(c2ccc(F)cc2)N2CCN(C/C=C/c3ccccc3)CC2)cc1 [Flunarizine]
Antihistaminic properties [8]: only weak antihistaminic properties | Sleep Time ([1]; flunarizine 0.25 mg/kg + cyclobarbital-Ca 239 mg/kg): 39.54 min | Sleep Time ([1]; flunarizine 1.0 mg/kg + cyclobarbital-Ca 239 mg/kg, ***p <0.001): 62.67 min | Sleep Time ([1]; flunarizine 1.0 mg/kg + hexobarbital 710 mg/kg): 40.44 min | Sleep Time ([1]; flunarizine 2.5 mg/kg + cyclobarbital-Ca 239 mg/kg, ***p <0.001): 75.15 min | Sleep Time ([1]; flunarizine 2.5 mg/kg + cyclobarbital-Ca + hexobarbital (40 + 30) 225 mg/kg): 33.45 min | Sleep Time ([1]; flunarizine 2.5 mg/kg + hexobarbital 710 mg/kg): 45.17 min | Sleep Time ([1]; flunarizine 5.0 mg/kg + hexobarbital 710 mg/kg, ***p <0.001): 94.51 min | Sleep Time ([1]; flunarizine 10.0 mg/kg + cyclobarbital-Ca + hexobarbital (40 + 30) 225 mg/kg, **p <0.01): 56.49 min | Sleep Time ([1]; flunarizine 15.0 mg/kg + cyclobarbital-Ca + hexobarbital (40 + 30) 225 mg/kg, ***p <0.001): 65.12 min | ED50 ([1]; flunarizine with cyclobarbital-Ca 239 mg/kg, range (0.29-0.45)): 0.38 mg/kg | ED50 ([1]; flunarizine with cyclobarbital-Ca + hexobarbital (40 + 30) 225 mg/kg, range (6.85-8.30)): 7.52 mg/kg | ED50 ([1]; flunarizine with hexobarbital 710 mg/kg, probit analysis): 2.94 mg/kg | Dosage to obtain an ED50 with the combination of both barbiturates ([1]; in comparison with the individual barbiturates): higher dosages | Effect on the action of barbiturates [1]: potentiating or enhancing effect | Potency for cyclobarbital-calcium ([1]; with cyclobarbital-calcium): highest potency

tocopherol
Effect on barbiturates [6]: increases the effect of barbiturates

C(=C\c1ccccc1)/CN1CCN(C(c2ccccc2)c2ccccc2)CC1 [Cinnarizine, 1-benzhydryl-4-trans-cinnamylpiperazine]
Sleep Time ([1]; cinnarizine 0.5 mg/kg + hexobarbital 710 mg/kg): 35.37 min | Sleep Time ([1]; cinnarizine 1.0 mg/kg + cyclobarbital-Ca 239 mg/kg): 24.34 min | Sleep Time ([1]; cinnarizine 1.0 mg/kg + cyclobarbital-Ca + hexobarbital (40 + 30) 225 mg/kg): 31.09 min | Sleep Time ([1]; cinnarizine 1.0 mg/kg + hexobarbital 710 mg/kg, **p <0.01): 65.58 min | Sleep Time ([1]; cinnarizine 1 mg/kg + phenobarbital 256 mg/kg): 25.78 min | Sleep Time ([1]; cinnarizine 2.5 mg/kg + cyclobarbital-Ca 239 mg/kg, *p <0.05): 41.43 min | Sleep Time ([1]; cinnarizine 2.5 mg/kg + cyclobarbital-Ca + hexobarbital (40 + 30) 225 mg/kg): 37.92 min | Sleep Time ([1]; cinnarizine 5.0 mg/kg + cyclobarbital-Ca 239 mg/kg, **p <0.01): 49.99 min | Sleep Time ([1]; cinnarizine 5.0 mg/kg + cyclobarbital-Ca + hexobarbital (40 + 30) 225 mg/kg, *p <0.05): 53.22 min | Sleep Time ([1]; cinnarizine 5 mg/kg + phenobarbital 256 mg/kg): 32.85 min | Sleep Time ([1]; cinnarizine 10 mg/kg + phenobarbital 256 mg/kg, *p <0.05): 43.55 min | Sleep Time ([1]; cinnarizine […] + hexobarbital 710 mg/kg, **p <0.01): 43.93 min | Effect on the action of barbiturates [1]: potentiating or enhancing effect | Optimum % of control [2, 10]: 278.2-336.0% | Optimum Min. [2, 10]: 10 to 30 min | Optimum Reflex [2, 10]: -3 | Optimum Min. [2, 11]: 10 to 20 min | Optimum Reflex [2, 11]: -3 | Optimum % of control [2, 12]: 166.7% | Optimum Min. [2, 12]: 10 min | Optimum Reflex [2, 12]: -1 | Optimum % of control [2, 13]: 156.3-183.3% | Optimum Min. [2, 13]: 10 to 20 min | Optimum Reflex [2, 13]: -2 | Optimum % of control [2, 14]: 300.8-407.0% | Optimum Min. [2, 14]: 10 to 30 min | Optimum Reflex [2, 14]: -4 | Optimum % of control [2, 15]: 350.0% | Optimum Min. [2, 15]: 10 to 30 min | Optimum Reflex [2, 15]: -1 | Optimum % of control [2, 16]: 138.8-177.5% | Optimum Min. [2, 16]: 10 to 20 min | Optimum Reflex [2, 16]: -2 | Optimum % of control [2, 17]: 350.0% | Optimum Min. [2, 17]: 10 min | Optimum Reflex [2, 17]: -2 | Optimum % of control [2, 18]: 175.0-233.0% | Optimum Min. [2, 18]: 10 to 40 min | Onset p.a. % of control [3, 10]: 86.2% | Onset x [3, 10]: 2.49 min | Onset p.a. % of control [3, 11]: 76.8% | Onset x [3, 11]: 2.22 min | Onset p.a. % of control [3, 12]: 51.3% | Onset x [3, 12]: 2.19 min | Onset p.a. % of control [3, 13]: 94.8% | Onset x [3, 13]: 1.09 min | Onset p.a. % of control [3, 14]: 55.0% | Onset x [3, 14]: 1.59 min | Onset p.a. % of control [3, 15]: 54.1% | Onset x [3, 15]: 2.31 min | Onset p.a. % of control [3, 16]: 102.6% | Onset x [3, 16]: 1.18 min | Onset p.a. % of control [3, 17]: 59.5% | Onset x [3, 17]: 2.54 min | Onset p.a. % of control [3, 18]: 102.6% | Onset x [3, 18]: 1.18 min | Sleep Time [4, 10]: 40.66 min | Sleep Time % of control [4, 10]: 113.4% | Sleep Time [4, 11]: 42.38 min | Sleep Time % of control [4, 11]: 118.2% | Sleep Time [4, 12]: 26.21 min | Sleep Time % of control [4, 12]: 106.4% | Sleep Time [4, 13]: 32.42 min | Sleep Time % of control [4, 13]: 92.6% | Sleep Time [4, 14]: 76.14 min | Sleep Time % of control [4, 14]: 212.3% | Sleep Time [4, 15]: 31.08 min | Sleep Time % of control [4, 15]: 126.1% | Sleep Time [4, 16]: 38.65 min | Sleep Time % of control [4, 16]: 110.4% | Sleep Time [4, 17]: 42.49 min | Sleep Time % of control [4, 17]: 172.4% | Sleep Time [4, 18]: 54.82 min | Sleep Time % of control [4, 18]: 156.6%

CCC1(C2=CCCCC2)C(=O)NC(=O)NC1=O [Cyclobarbital-Ca]
Sleep Time ([1]; cyclobarbital-Ca 239 mg/kg alone, cinnarizine series): 27.45 min | Sleep Time ([1]; cyclobarbital-Ca 239 mg/kg alone, flunarizine series): 32.03 min | Optimum % of control [2, 19]: 100.0% | Optimum Min. [2, 19]: 10 min | Onset p.a. % of control [3, 19]: 100.0% | Onset x [3, 19]: 4.27 min | Effect on onset, in words ([3]; mouse, in vivo): marked effect | Sleep Time [4, 19]: 24.64 min | Sleep Time % of control [4, 19]: 100.0% | Sleep Time ([5]; 200 mg/kg oral): 14.01 min | Sleep Time ([5]; 250 mg/kg oral): 34.38 min | Sleep Time ([5]; 300 mg/kg oral): 90 min | Sleep Time, individual animals ([5]; 300 mg/kg oral, footnote 1): 90 min and 60.5 min and 53.3 min | ED50 [5]: 239 mg/kg

CCC1(c2ccccc2)C(=O)NC(=O)NC1=O [Phenobarbital]
Sleep Time ([1]; phenobarbital 256 mg/kg alone, cinnarizine series): 22.34 min | Sleep Time ([5]; 200 mg/kg oral): 4.29 min | Sleep Time ([5]; 250 mg/kg oral): 27.52 min | Sleep Time ([5]; 300 mg/kg oral): 49.06 min | Sleep Time ([5]; 400 mg/kg oral): 49.28 min | ED50 [5]: 256 mg/kg
